Measurements published in paper PMC7000700, “RyR1-targeted drug discovery pipeline integrating FRET-based high-throughput screening and human myofiber dynamic Ca^2+ assays” (Scientific Reports, 2020).
“Also recorded” adds a separate entry of the source.

Legend:
RyR1 [1] = molecular target: T1, RyR1 (Sus scrofa, UniProt P16960); test: FLT-FRET between D-FKBP and A-CaM bound to RyR1 in skeletal SR membranes (HTS and dose-response); format: binding, porcine; parameters: RyR1 in skeletal SR membranes, and RyR2 in cardiac SR membranes; from tissue; host or cells: porcine longissimus dorsi muscle (heavy SR vesicles); conditions: 30 nM Ca2+; for Effect on FRET: RyR1 samples, micromolar compound, GSSG or GSH
T1 sequence (P16960 whole entry): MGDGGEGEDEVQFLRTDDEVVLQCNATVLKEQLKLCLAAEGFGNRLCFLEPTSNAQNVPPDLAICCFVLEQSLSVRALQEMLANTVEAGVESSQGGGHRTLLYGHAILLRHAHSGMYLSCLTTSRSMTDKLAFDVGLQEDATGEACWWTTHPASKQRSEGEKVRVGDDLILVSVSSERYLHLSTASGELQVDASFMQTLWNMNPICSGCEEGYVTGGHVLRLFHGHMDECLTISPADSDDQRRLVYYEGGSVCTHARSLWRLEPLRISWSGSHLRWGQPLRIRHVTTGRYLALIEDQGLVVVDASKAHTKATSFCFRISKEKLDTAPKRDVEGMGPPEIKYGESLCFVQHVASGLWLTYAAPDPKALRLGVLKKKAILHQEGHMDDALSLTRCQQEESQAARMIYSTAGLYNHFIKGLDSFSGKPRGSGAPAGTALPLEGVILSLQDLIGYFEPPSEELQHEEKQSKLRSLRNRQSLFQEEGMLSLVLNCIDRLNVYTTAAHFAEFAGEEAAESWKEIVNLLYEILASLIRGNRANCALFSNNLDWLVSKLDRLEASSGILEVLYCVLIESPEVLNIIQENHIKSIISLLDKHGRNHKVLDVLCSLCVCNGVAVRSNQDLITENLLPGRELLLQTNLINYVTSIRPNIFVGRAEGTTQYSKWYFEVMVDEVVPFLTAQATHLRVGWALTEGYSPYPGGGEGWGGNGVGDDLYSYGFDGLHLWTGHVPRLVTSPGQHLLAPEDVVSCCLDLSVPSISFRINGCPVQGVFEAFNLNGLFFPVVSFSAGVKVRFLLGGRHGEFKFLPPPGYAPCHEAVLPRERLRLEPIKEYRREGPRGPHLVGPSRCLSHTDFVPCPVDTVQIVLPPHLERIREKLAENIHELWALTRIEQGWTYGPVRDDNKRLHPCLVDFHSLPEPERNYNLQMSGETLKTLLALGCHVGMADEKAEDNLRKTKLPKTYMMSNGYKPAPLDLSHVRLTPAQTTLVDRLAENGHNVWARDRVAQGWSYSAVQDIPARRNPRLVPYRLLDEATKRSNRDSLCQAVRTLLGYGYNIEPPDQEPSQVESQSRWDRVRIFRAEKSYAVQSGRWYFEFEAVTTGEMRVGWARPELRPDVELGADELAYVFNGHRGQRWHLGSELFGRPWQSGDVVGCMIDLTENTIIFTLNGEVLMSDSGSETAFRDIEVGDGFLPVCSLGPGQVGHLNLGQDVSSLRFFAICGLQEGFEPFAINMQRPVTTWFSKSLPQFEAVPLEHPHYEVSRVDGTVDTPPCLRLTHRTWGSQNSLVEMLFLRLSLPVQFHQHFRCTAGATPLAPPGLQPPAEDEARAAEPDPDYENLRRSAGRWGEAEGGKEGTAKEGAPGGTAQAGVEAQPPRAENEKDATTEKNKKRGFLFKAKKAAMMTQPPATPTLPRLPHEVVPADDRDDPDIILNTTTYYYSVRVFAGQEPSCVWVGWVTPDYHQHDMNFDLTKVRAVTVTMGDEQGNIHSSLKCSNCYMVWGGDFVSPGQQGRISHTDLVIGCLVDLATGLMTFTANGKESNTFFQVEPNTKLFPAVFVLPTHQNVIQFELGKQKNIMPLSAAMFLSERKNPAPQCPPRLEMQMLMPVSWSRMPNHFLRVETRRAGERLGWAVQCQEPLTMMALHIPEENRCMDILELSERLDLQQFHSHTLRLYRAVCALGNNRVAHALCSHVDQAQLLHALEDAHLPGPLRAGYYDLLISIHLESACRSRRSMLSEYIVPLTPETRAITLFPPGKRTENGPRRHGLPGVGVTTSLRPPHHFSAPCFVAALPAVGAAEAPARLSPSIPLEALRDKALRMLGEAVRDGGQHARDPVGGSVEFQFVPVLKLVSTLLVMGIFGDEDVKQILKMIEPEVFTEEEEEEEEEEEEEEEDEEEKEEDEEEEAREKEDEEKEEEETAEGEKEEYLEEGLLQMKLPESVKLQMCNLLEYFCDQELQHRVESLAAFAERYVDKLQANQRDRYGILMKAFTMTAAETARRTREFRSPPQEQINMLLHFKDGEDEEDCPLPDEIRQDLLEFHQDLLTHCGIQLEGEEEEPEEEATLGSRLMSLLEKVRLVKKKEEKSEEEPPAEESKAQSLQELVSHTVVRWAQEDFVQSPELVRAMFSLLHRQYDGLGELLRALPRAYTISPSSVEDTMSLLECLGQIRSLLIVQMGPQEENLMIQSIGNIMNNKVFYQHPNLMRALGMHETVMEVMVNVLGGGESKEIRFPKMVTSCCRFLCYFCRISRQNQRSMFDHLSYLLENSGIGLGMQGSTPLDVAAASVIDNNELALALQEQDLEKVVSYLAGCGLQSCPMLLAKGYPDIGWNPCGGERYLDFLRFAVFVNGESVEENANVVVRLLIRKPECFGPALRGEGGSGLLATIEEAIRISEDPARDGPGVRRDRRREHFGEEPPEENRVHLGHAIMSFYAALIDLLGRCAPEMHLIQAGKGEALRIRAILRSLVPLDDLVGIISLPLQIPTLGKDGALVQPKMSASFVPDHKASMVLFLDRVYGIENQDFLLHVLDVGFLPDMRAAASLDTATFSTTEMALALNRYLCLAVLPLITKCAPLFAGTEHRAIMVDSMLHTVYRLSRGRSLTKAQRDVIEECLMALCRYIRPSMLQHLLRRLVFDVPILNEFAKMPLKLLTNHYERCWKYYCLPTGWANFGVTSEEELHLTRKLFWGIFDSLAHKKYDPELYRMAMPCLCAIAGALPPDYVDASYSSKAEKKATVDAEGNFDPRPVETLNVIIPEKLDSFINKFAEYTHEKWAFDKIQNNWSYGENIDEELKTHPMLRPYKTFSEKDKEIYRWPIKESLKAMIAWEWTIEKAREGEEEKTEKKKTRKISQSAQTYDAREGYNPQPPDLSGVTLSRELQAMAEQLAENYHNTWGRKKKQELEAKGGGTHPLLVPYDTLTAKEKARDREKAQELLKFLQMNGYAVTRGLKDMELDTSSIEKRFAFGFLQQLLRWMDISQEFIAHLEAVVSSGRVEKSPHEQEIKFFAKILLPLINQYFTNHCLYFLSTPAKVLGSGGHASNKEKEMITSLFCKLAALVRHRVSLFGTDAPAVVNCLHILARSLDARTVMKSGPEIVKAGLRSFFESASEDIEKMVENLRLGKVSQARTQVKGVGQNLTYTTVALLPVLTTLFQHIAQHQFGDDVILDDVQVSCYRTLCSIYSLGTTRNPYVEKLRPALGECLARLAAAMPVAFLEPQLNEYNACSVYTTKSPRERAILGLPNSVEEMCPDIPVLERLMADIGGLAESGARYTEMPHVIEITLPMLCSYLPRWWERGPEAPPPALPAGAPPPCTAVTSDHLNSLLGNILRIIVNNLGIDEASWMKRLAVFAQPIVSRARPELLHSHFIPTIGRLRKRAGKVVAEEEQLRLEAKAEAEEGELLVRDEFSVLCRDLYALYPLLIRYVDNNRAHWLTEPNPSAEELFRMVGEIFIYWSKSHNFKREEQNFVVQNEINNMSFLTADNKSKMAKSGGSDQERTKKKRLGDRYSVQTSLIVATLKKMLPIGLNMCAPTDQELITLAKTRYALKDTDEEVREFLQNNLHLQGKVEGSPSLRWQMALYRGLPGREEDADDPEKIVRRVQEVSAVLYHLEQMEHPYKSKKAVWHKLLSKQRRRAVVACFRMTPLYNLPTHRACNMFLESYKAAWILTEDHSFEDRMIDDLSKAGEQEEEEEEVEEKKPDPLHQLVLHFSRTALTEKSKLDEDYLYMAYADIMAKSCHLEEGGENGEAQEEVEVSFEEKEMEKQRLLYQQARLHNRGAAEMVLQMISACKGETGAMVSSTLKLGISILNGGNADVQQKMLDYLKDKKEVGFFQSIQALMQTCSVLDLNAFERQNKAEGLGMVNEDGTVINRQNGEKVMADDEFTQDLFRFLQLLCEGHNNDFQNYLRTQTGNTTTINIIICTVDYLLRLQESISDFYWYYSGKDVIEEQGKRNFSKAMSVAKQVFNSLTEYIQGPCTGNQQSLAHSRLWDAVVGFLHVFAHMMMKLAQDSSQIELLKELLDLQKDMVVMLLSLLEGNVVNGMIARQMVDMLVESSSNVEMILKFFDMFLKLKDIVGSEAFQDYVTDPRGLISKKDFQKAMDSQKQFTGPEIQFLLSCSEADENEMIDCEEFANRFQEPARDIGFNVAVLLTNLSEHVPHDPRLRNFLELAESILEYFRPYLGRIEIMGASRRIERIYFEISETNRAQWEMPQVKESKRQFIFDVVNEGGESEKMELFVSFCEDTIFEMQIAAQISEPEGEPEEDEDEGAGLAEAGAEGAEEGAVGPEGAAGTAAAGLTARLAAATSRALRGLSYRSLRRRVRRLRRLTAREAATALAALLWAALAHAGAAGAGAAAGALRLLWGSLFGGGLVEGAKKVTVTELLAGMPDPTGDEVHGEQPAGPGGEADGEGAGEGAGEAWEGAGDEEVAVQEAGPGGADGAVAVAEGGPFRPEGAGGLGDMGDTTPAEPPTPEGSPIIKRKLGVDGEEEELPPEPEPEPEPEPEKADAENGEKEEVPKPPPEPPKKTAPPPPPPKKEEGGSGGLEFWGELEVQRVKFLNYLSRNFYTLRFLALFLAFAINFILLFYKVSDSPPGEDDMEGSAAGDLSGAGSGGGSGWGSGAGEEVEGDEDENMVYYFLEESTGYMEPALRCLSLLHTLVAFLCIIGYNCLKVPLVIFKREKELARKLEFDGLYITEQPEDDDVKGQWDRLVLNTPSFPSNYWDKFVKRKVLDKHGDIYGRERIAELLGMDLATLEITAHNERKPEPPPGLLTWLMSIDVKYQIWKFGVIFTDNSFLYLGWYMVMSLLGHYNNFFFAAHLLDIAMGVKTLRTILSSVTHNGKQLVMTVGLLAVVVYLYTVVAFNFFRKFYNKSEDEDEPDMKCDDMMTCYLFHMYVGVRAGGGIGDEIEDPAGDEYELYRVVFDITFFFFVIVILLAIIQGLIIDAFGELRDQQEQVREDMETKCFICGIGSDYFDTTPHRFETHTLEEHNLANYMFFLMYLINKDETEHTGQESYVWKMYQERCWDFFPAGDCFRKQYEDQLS
Protocol: To confer compatibility with current HTS standards in industrial drug discovery facilities, we miniaturized our screening format from the previously established 384-well plates, requiring 50 μL sample per well[19], to 1536-well plates, requiring 5 μL sample per well. The complete 1280-compound library of pharmacologically active compounds (LOPAC) was applied as 5 nL/well in 40 columns of one 1536-well black-wall/black-bottom plate, with the remaining 8 columns loaded with 5 nL/well of DMSO, as no-drug controls. For each run of the screen, three plates were loaded with either (1) unlabeled HSR, or (2) HSR pre-incubated with donor-FKBP (D-FKBP; donor-only sample), or (3) donor-only sample that was additionally incubated with 0.3 μM acceptor-CaM (A-CaM) for 60 min prior to loading on the plate (donor-acceptor sample). This sub-saturating concentration of A-CaM was used to provide a readout that is sensitive to library compounds that may increase or decrease CaM binding affinity to RyR. To promote a homogenous population of RyR1 resembling that associated with myopathies, final assay conditions also included 30 nM Ca^2+ to represent resting (muscle relaxing) Ca^2+, and 5 mM oxidized glutathione (GSSG), which exaggerates the conditions associated with oxidative stress.
We acquired both FLT waveforms and fluorescence spectra, as previously described[19],[33],[34]. As previously observed, Hit effects were greatest following a 2-hour incubation with the library compounds (Supplementary Fig. 1a). As a result, all FRET results shown in Figs. 1 and 2, and Supplementary Fig. 2 are reported from the 2-hour incubation.
Necessary counter-screens to our pathological RyR1 conditions include evaluating compound effects in healthy conditions and on the cardiac isoform, RyR2. Using the same FRET assay as in HTS, we tested the dose response of key Hits from this screen and the previously HTS-identified RyR1 inhibitor, chloroxine, on healthy (5 mM GSH) and pathological (5 mM GSSG) conditions for both RyR1 in skeletal SR membranes, and RyR2 in cardiac SR membranes.
Skeletal HSR and cardiac CSR (0.4 mg/ml) membranes were independently pre-incubated with 60 nM D-FKBP, for 90 min, at 37 °C, in a solution containing 150 mM KCl, 5 mM GSH, 0.1 mg/mL BSA, 1 µg/mL Aprotinin/Leupeptin, 1 mM DTT and 20 mM PIPES (pH 7.0). To remove unbound D-FKBP, the SR membranes were spun down at 110,000 × g for 20 min, and then resuspended to 1 mg/mL (skeletal HSR) and 2 mg/mL (cardiac CSR) in binding buffer consisting of 150 mM KCl, 5 mM GSSG, 0.1 mg/mL BSA, 1μg/mL Aprotinin/Leupeptin and 20 mM PIPES, pH 7.0. These samples were then incubated with indicated [A-CaM] for 30 min at 22 °C in binding buffer containing 0.065 mM CaCl2 to give 30 nM free Ca^2+ in the presence of 1 mM EGTA (calculated by MaxChelator). This labeled SR sample was applied to the assay plates in 5 μL aliquots using a Multidrop™ Combi reagent dispenser (Thermo Scientific) with a standard-tube. An additional set of the assay plates were loaded with skeletal HSR or cardiac CSR labeled with only D-FKBP (no added A-CaM).
FLT measurements were conducted in a top-read FLT-PR designed and built by Fluorescence Innovations, Inc[33]. AF488 donor fluorescence was excited with a 473-nm microchip laser from Concepts Research Corporation (Belgium, WI), and emission was acquired with 490-nm long-pass and 517/20-nm band-pass filters (Semrock, Rochester, NY).
FLT waveforms for each well were fit based on a one-exponential decay function using least-squares minimization global-analysis software (Fluorescence Innovations, Inc.), as previously described[19],[33]. FRET efficiency (E) was determined as the fractional decrease of donor FLT (τD), due to the presence of acceptor fluorophore (τDA), using the following equation:1 E=1−τDA/τD, […]

RyR1 [2] = molecular target: T1, RyR1; test: F-FKBP binding to RyR1 by co-sedimentation with skeletal SR membranes; parameters: using co-sedimentation with pig skeletal and cardiac SR membranes; from tissue; host or cells: pig skeletal muscle (heavy SR membranes); species or system pig; conditions: RyR1, 10 μM Hit, 30 nM Ca2+, 5 mM GSSG or GSH
Protocol: The Hit-induced effect on FRET between D-FKBP and A-CaM most likely results from one or the combination of factors, including a shift in CaM and/or FKBP12.6 binding, and/or structure of the RyR complex that shifts the D-A distance. Under the same assay conditions as in the primary screen, we assessed the effect of 10 μM Hit on fluorescent FKBP12.6 (F-FKBP) binding to RyRs, using co-sedimentation with pig skeletal and cardiac SR membranes.
Supplementary Fig. 3 Effect of HTS Hits on F-FKBP binding to a) RyR1 in skeletal HSR membranes, and b) RyR2
in cardiac CSR membranes at 30 nM Ca2+ in the presence of 5 mM GSSG or GSH. Results are represented as individual
data points and means ± SEM, n = 4-5. *P < 0.05 by 2-sided Student’s unpaired t-test. […]

Effect on FRET (RyR1 [1])	Decrease of F-FKBP binding (RyR1 [2])	Compound	Hit in primary FLT-FRET HTS of LOPAC (FRET altered by > 4 SD vs DMSO) (RyR1 [1]; 10 μM compound, 2-hour incubation, 5 mM GSSG, 0.3 μM A-CaM, 1536-well)
increased		Oc1c(Cl)cc(Cl)c2cccnc12 [chloroxine]	
increases FRET	did not alter	O=c1c(O)c(-c2cc(O)c(O)c(O)c2)oc2cc(O)cc(O)c12 [myricetin]	identified; also recorded: increased the FRET efficiency readout
